The experiment concerns the target T1, Farnesoid X receptor (FXR) (Homo sapiens, UniProt Q96RI1).
T1 construct: gene NR1H4; FXR-LBD-Glutathione S-transferase fusion protein
T1 sequence (Q96RI1 262-486 limits assumed): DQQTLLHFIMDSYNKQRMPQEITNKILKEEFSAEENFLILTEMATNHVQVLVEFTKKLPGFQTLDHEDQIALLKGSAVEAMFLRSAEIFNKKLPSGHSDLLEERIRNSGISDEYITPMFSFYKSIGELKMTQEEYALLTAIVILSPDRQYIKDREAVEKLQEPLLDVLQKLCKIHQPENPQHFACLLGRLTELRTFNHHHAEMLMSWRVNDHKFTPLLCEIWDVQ
Description: LanthaScreen TR-FRET FXR coactivator recruitment assay (partial agonist, […] of GW4064); also luciferase reporter assay. The class given is binding.

Molecules are shown by their SMILES.

By EC50 is commonly meant the concentration giving half of the maximal effect. A low value points to a more potent agent.

`CC(C)(C)c1ccc(-n2c(C3CC3)nc3c(NC(=O)c4ccc(C(=O)O)cc4)cccc32)cc1` [FLG390] displayed an EC50 of 630 ± 260 nM.
